Measurements published in BigSolDB 2.1.

SMILES: O=C1CN=C(c2ccccc2Cl)c2cc([N+](=O)[O-])ccc2N1
- solubility (mole fraction) (in NMP, 298.2 K): 0.0132
- solubility (mole fraction) (in NMP, 303.2 K): 0.0142
- solubility (mole fraction) (in NMP, 308.2 K): 0.0187
- solubility (mole fraction) (in NMP, 313.2 K): 0.0207
- solubility (mole fraction) (in NMP, 318.2 K): 0.0222
- solubility (mole fraction) (in PEG-200, 298.2 K): 0.01
- solubility (mole fraction) (in PEG-200, 303.2 K): 0.01
- solubility (mole fraction) (in PEG-200, 308.2 K): 0.0134
- solubility (mole fraction) (in PEG-200, 313.2 K): 0.0168
- solubility (mole fraction) (in PEG-200, 318.2 K): 0.0239
- solubility (mole fraction) (in ethanol, 298.2 K): 0.000348
- solubility (mole fraction) (in ethanol, 303.2 K): 0.000409
- solubility (mole fraction) (in ethanol, 308.2 K): 0.000533
- solubility (mole fraction) (in ethanol, 313.2 K): 0.00058
- solubility (mole fraction) (in ethanol, 318.2 K): 0.000652
- solubility (mole fraction) (in propylene glycol, 298.2 K): 0.000641
- solubility (mole fraction) (in propylene glycol, 303.2 K): 0.00104
- solubility (mole fraction) (in propylene glycol, 308.2 K): 0.00108
- solubility (mole fraction) (in propylene glycol, 313.2 K): 0.00116
- solubility (mole fraction) (in propylene glycol, 318.2 K): 0.00138
- solubility (mole fraction) (in water, 298.2 K): 1.9e-07
- solubility (mole fraction) (in water, 303.2 K): 2.4e-07
- solubility (mole fraction) (in water, 308.2 K): 2.6e-07
- solubility (mole fraction) (in water, 313.2 K): 2.9e-07
- solubility (mole fraction) (in water, 318.2 K): 3.2e-07
